From patent publication US8921372B2, “Inhibitors of hepatitis C virus” (Theravance Biopharma R&D IP, LLC, priority 2010, dated 2014)
Like-named read-outs stand apart in the source and are kept apart here.

Columns and labels:
[1] = test system: HCV genotype 1b replicon cell line (APC144; Huh7 cell background); assay: HCV Genotype 1b Replicon Assay (Renilla luciferase readout); format: cell-based; details: Hepatitis C virus, Huh-7; read-out: Genotype 1b (pEC50 class, HCV genotype 1b replicon assay) (converted)
Text: Assay 1: HCV Genotype 1b Replicon Assay
The HCV genotype 1b replicon cell line was obtained from Apath LLC (Brooklyn, N.Y.) (APC144; Huh7 cell background). This subgenomic replicon contains the N-terminus of the HCV core protein fused to the neomycin-resistance selectable marker. The EMCV IRES lies downstream and drives expression of humanized Renilla luciferase fused to the non-structural proteins NS3-NS5B. This cell line was used to determine compound potency using the luciferase activity readout as a measurement of compound inhibition of replicon levels.
(§1) Cells were grown at 37° C. in a 5% CO2 humidified incubator in DMEM (Invitrogen) with 10% FBS (HyClone), 1×NEAA (Invitrogen), 1× Pen-Strep (Invitrogen), and 500 μg/mL G418 (Invitrogen). On day 1 of the assay, cells were plated at 10,000 cells/well in white 96-well tissue culture plates (Costar) in 200 μL media lacking G418. Four hours later, once the cells have adhered, the media was removed and replaced with media (no G418) containing dose-responses of test compounds. Compounds were initially diluted in DMSO and then diluted another 200× in media to bring the final DMSO concentration down to 0.5%. The cells were incubated with test compounds for 48 hours. At the end of the incubation period, media and compound were removed from the plates and the luciferase activity was determined using Promega Renilla-Glo reagents.
To analyze the data, the luciferase activity was plotted vs. the compound concentration, and EC50 values were determined from a 4-parameter robust fit model with the GraphPad Prism software package (GraphPad Software, Inc., San Diego, Calif.). Results are expressed as the negative decadic logarithm of the EC50 value, pEC50.
Test compounds having a higher pEC50 value in this assay show greater inhibition of HCV genotype 1b replication.

[2] = test system: HCV genotype 1a replicon cell line (APC89; Huh7.5 cell background); assay: HCV Genotype 1a Replicon Assay (NS3-specific protease activity readout); format: cell-based; details: Hepatitis C virus
Description: Assay 2: HCV Genotype 1a Replicon Assay
The HCV genotype 1a replicon cell line was obtained from Apath LLC (APC89; Huh7.5 cell background). This subgenomic replicon contains the N-terminus of the HCV core protein fused to the neomycin-resistance selectable marker. The EMCV IRES lies downstream and drives expression of the non-structural proteins NS3-NS5B. Compound potencies were determined using the NS3-specific protease activity in lysates as a measurement of compound inhibition of replicon levels.
as §1, with “850” for “500”, “15,000” for “10,000”, “black” for “white”, “had” for “have”, “48 or 72” for “48”, “plates.” for “plates and the luciferase activity was determined using Promega Renilla-Glo reagents.”
To determine the NS3-specific protease activity in lysates, the cells were lysed at room temperature in 50 μL/well of 50 mM Hepes pH 7.5, 150 mM NaCl, 15% Glycerol, 0.15% Triton X-100, 10 mM DTT for 20 minutes with shaking. 50 μL of an NS3/4a protease-specific FRET substrate (Anaspec RET S1 Cat#22991) was then added to the wells at a final concentration of 15 μM. The plates were incubated at 37° C. for 20 minutes, which corresponds to a timepoint at which the protease activity is still in the linear phase. Protease activity was determined by measuring fluorescence (Excitation: 340 nm; Emission: 509 nm).
To analyze the data, the fluorescence was plotted vs. the compound concentration, and EC50 values were determined from a 4-parameter robust fit model using GraphPad Prism software.

[3] = compounds incubated for 48 hours, read-out: Genotype 1a (pEC50 class, HCV genotype 1a replicon assay), * results (converted)
[4] = 72 hour incubation, read-out: Genotype 1a (pEC50 class, HCV genotype 1a replicon assay) (converted)

Structure (SMILES) | EC50 [1] | EC50 [2, 3] | EC50 [2, 4]
COC(=O)N[C@H](C(=O)N1CCC[C@H]1c1nc(-c2ccc(-c3ccc(C(=O)Nc4ccc(N5CCN(C(=O)OC(C)(C)C)CC5)cc4)cc3)cc2)c[nH]1)C(C)C [Example 6, 4-{4-[(4′-{2-[(S)-1-((S)-2-Methoxycarbonylamino-3-methyl-butyryl)-pyrrolidin-2-yl]-1H-imidazol-4-yl}-biphenyl-4-carbonyl)-amino]-phenyl}-piperazine-1-carboxylic acid tert-butyl ester] | < 0.1 nM | 10 to 100 nM | –
CNC(=O)N1C[C@@H](C)N(c2ccc(C(=O)Nc3cc(OC(F)(F)F)c(-c4ccc(-c5c[nH]c([C@@H]6CCCN6C(=O)[C@@H](NC(=O)OC)C(C)C)n5)cc4)cc3Cl)cn2)C[C@@H]1C [Example 28-36] | < 0.1 nM | – | < 0.1 nM
CCOc1cc(NC(=O)c2ccc(N3CCN(C(=O)[C@]4(C)CCCN4C(=O)[C@@H](NC(=O)OC)C(C)C)C[C@H]3C)nc2)ccc1-c1ccc(-c2c[nH]c([C@@H]3CCCN3C(=O)[C@@H](NC(=O)OC)C(C)C)n2)cc1 [Example 21, [(S)-1-((S)-2-{4-[2′-Ethoxy-4′-({6-[(R)-4-((S)-1-{(S)-2-methoxycarbonylamino-3-methyl-butyryl}-2-methyl-pyrrolidine-2-carbonyl)-2-methyl-piperazin-1-yl]-pyridine-3-carbonyl}-amino)-biphenyl-4-yl]-1H-imidazol-2-yl}-pyrrolidine-1-carbonyl)-2-methyl-propyl]-carbamic acid methyl ester] | < 0.1 nM | – | < 0.1 nM
COC(=O)N[C@H](C(=O)N1CCC[C@H]1c1nc(-c2ccc(-c3cc(F)c(NC(=O)c4ccc(N5C[C@H](C)N(C(=O)[C@H]6CC6(C)C)C[C@H]5C)nc4)cc3OC(F)(F)F)cc2)c[nH]1)C(C)C [Example 57] | < 0.1 nM | – | < 0.1 nM
COC(=O)N[C@H](C(=O)N1CCC[C@H]1c1nc(-c2ccc(-c3cc(F)c(NC(=O)c4ccc(N5CCN(C(=O)[C@]6(C)CCCN6C(=O)[C@@H](N)C(C)C)C[C@H]5C)nc4)cc3OC(F)(F)F)cc2)c[nH]1)C(C)C [Example 27-44] | < 0.1 nM | – | < 0.1 nM
COC(=O)N[C@H](C(=O)N1CCC[C@H]1c1nc(-c2ccc(-c3ccc(NC(=O)c4ccc(N5CCN(C(=O)C6CC6)C[C@H]5C)nc4)cc3)cc2)c[nH]1)C(C)C [Example 12, ((S)-1-{(S)-2-[4-(4′-{[6-((R)-4-Cyclopropanecarbonyl-2-methyl-piperazin-1-yl)-pyridine-3-carbonyl]-amino}-biphenyl-4-yl)-1H-imidazol-2-yl]-pyrrolidine-1-carbonyl}-2-methyl-propyl)-carbamic acid methyl ester] | < 0.1 nM | – | 0.1 to 1 nM
COC(=O)N[C@H](C(=O)N1CCC[C@H]1c1nc(-c2ccc(-c3cc(F)c(NC(=O)c4ccc(N5C[C@H](C)N(C(=O)c6c[nH]cn6)C[C@H]5C)nc4)cc3OC(F)(F)F)cc2)c[nH]1)C(C)C [Example 59] | < 0.1 nM | – | < 0.1 nM
COC(=O)N[C@H](C(=O)N1CCC[C@H]1c1nc(-c2ccc(-c3ccc(NC(=O)c4ccc(N5C[C@H](C)N(C(=O)c6c[nH]cn6)C[C@H]5C)nc4)cc3OC(F)(F)F)cc2)c[nH]1)C(C)C [Example 32] | < 0.1 nM | – | < 0.1 nM
COC(=O)N[C@H](C(=O)N1CCC[C@H]1c1nc(-c2ccc(-c3ccc(NC(=O)c4ccc(N5CCN(C(=O)OC(C)(C)C)CC5)cc4)cc3)cc2)c[nH]1)C(C)C [Example 3, 4-[4-(4′-{2-[(S)-1-((S)-2-Methoxycarbonylamino-3-methyl-butyryl)-pyrrolidin-2-yl]-1H-imidazol-4-yl}-biphenyl-4-ylcarbamoyl)-phenyl]-piperazine-1-carboxylic acid tert-butyl ester] | < 0.1 nM | 1 to 10 nM | –
COCC(=O)N1CCC[C@@]1(C)C(=O)N1CCN(c2ccc(C(=O)Nc3cc(OC(F)(F)F)c(-c4ccc(-c5c[nH]c([C@@H]6CCCN6C(=O)[C@@H](NC(=O)OC)C(C)C)n5)cc4)cc3OC)cn2)[C@H](C)C1 [Example 27-31] | < 0.1 nM | – | < 0.1 nM
COC(=O)N[C@H](C(=O)N1CCC[C@H]1c1nc(-c2ccc(-c3cc(F)c(NC(=O)c4ccc(N5CCN(C(=O)c6cc[nH]n6)C[C@H]5C)nc4)cc3OC(F)(F)F)cc2)c[nH]1)C(C)C [Example 27-34] | < 0.1 nM | – | < 0.1 nM
CNC(=O)N1C[C@@H](C)N(c2ccc(C(=O)Nc3cc(C(F)(F)F)c(-c4ccc(-c5c[nH]c([C@@H]6CCCN6C(=O)[C@@H](NC(=O)OC)C(C)C)n5)cc4)cc3Cl)cn2)C[C@@H]1C [Example 64] | < 0.1 nM | – | < 0.1 nM
CCN(CC)[C@@H](C(=O)N1CCC[C@H]1c1nc(-c2ccc(-c3ccc(NC(=O)c4ccc(N5CCN(C(=O)C6CC6)CC5)cc4)cc3)cc2)c[nH]1)c1ccccc1 [Example 9, 4-(4-Cyclopropanecarbonyl-piperazin-1-yl)-N-(4′-{2-[(S)-1-((R)-2-diethylamino-2-phenyl-acetyl)-pyrrolidin-2-yl]-1H-imidazol-4-yl}-biphenyl-4-yl)-benzamide] | < 0.1 nM | 0.1 to 1 nM | –
COC(=O)N[C@H](C(=O)N1CCC[C@H]1c1nc(-c2ccc(-c3cc(F)c(NC(=O)c4ccc(N5CCN(C(=O)[C@]6(C)CCCN6C(=O)CN(C)C)C[C@H]5C)nc4)cc3OC(F)(F)F)cc2)c[nH]1)C(C)C [Example 27-50] | < 0.1 nM | – | < 0.1 nM
COC(=O)N[C@H](C(=O)N1CCC[C@H]1c1nc(-c2ccc(-c3ccc(NC(=O)c4ccc(N5CCN(C(=O)[C@H]6CC6(C)C)C[C@H]5C)nc4)cc3F)c(F)c2)c[nH]1)C(C)C [Example 50, [(S)-1-((S)-2-{4-[4′-({6-[(R)-4-((S)-2,2-dimethyl-cyclopropanecarbonyl)-2-methyl-piperazin-1-yl]-pyridine-3-carbonyl}-amino)-2,2′-difluoro-biphenyl-4-yl]-1H-imidazol-2-yl}-pyrrolidine-1-carbonyl)-2-methyl-propyl]-carbamicacid methyl ester] | < 0.1 nM | – | < 0.1 nM
COC(=O)N[C@H](C(=O)N1CCC[C@H]1c1nc(-c2ccc(-c3cc(Cl)c(NC(=O)c4ccc(N5CCN(C(=O)[C@]6(C)CCCN6C(=O)CN(C)C)C[C@H]5C)nc4)cc3OC(F)(F)F)cc2)c[nH]1)C(C)C [Example 27-72] | < 0.1 nM | – | < 0.1 nM
CNC(=O)N1CCN(c2ccc(C(=O)Nc3ccc(-c4ccc(-c5c[nH]c([C@@H]6CCCN6C(=O)[C@@H](NC(=O)OC)C(C)C)n5)cc4)c(C)c3)cn2)[C@H](C)C1 [Example 18] | < 0.1 nM | – | 0.1 to 1 nM
COC(=O)N[C@H](C(=O)N1CCC[C@H]1c1nc(-c2ccc(-c3ccc(NC(=O)c4ccc(N5CCN(C(=O)c6c[nH]cn6)C[C@H]5C)nc4)cc3C)cc2)c[nH]1)C(C)C [Example 19] | < 0.1 nM | – | 0.1 to 1 nM
COC(=O)N[C@H](C(=O)N1CCC[C@H]1c1nc(-c2ccc(-c3cc(F)c(NC(=O)c4ccc(N5CCN(C(=O)c6c[nH]cn6)C[C@H]5C)nc4)cc3OC(F)(F)F)cc2)c[nH]1)C(C)C [Example 27-33] | < 0.1 nM | – | < 0.1 nM
